Results taken from patent US9216991B2 (Ares Trading S.A., priority 2012, dated 2015).

These compounds were tested against T1, IRAK4 (Homo sapiens, UniProt Q9NWZ3) (assay: IRAK4 Enzymatic Assay). Settings: His-TEV-IRAK4 20 ng/well, ATP 2 μM, STK1-biotin peptide 300 nM, 3 hours at 30° C., FlashPlate radioactivity.
T1 construct: His (N); TEV cleavage site (N)
T1 sequence (Q9NWZ3 1-460): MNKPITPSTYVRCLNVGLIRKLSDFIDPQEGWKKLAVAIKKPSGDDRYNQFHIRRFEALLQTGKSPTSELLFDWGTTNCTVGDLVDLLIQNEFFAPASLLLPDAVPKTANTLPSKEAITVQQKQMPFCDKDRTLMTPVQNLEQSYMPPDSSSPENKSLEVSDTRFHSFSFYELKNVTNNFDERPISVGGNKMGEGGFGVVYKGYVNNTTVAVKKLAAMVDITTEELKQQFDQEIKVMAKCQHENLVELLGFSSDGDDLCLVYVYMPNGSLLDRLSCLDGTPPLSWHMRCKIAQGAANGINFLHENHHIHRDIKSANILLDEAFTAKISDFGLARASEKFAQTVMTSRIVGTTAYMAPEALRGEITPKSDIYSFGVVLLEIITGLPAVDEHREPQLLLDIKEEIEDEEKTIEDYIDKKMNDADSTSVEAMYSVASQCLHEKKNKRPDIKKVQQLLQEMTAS
Format: biochemical
Outline: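 Recombinant His-TEV-tagged IRAK4 (20 ng/well) phosphorylates biotinylated STK1 peptide (300 nM) with 2 μM ATP plus [^33P]ATP, 3 h at 30 °C in pH 7.0 HEPES buffer with MgCl2 and MnCl2; compounds tested 20 μM to 1 nM. Reaction stopped with EDTA; incorporated radioactivity counted on streptavidin FlashPlates.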

Row | SMILES | IC50
1 | CC(C)N(C)C(=O)[C@H]1CC[C@H](n2cc(-c3cnc(-c4cccc(-c5cnn(C)c5)c4)nc3)cn2)CC1 [Example 200, Trans-4-(4-{2-[3-(1-Methyl-1H-pyrazol-4-yl)-phenyl]-pyrimidin-5-yl}-pyrazol-1-yl)-cyclohexanecarboxylic acid isopropyl-methyl-amide] | < 100 nM
2 | CCC(O)CNC(=O)[C@H]1CC[C@H](n2cc(-c3cnc(-c4cccc(-c5cnn(C)c5)c4)nc3)cn2)CC1 (stereo partly drawn) [Example 203, trans-4-(4-{2-[3-(1-Methyl-1H-pyrazol-4-yl)-phenyl]-pyrimidin-5-yl}-pyrazol-1-yl)-cyclohexanecarboxylic acid (2-hydroxy-butyl)-amide] | < 100 nM
3 | CCN(C)C(=O)[C@H]1CC[C@H](n2cc(-c3cnc(-c4cccc(-c5cnn(C)c5)c4)nc3)cn2)CC1 [Example 204, 4-(4-{2-[3-(1-Methyl-1H-pyrazol-4-yl)-phenyl]-pyrimidin-5-yl}-pyrazol-1-yl)-cyclohexanecarboxylic acid ethyl-methyl-amide] | < 100 nM
4 | Cn1cc(-c2cccc(-c3ncc(-c4cnn([C@H]5CC[C@H](C(=O)N6CC[C@H](O)C6)CC5)c4)cn3)c2)cn1 [Example 205, trans-((S)-3-Hydroxy-pyrrolidin-1-yl)-[4-(4-{2-[3-(1-methyl-1H-pyrazol-4-yl)-phenyl]-pyrimidin-5-yl}-pyrazol-1-yl)-cyclohexyl]-methanone] | < 100 nM
5 | Cn1cc(-c2cccc(-c3ncc(-c4cnn([C@H]5CC[C@H](C(N)=O)CC5)c4)cn3)c2)cn1 [Example 206, Trans-4-(4-{2-[3-(1-Methyl-1H-pyrazol-4-yl)-phenyl]-pyrimidin-5-yl}-pyrazol-1-yl)-cyclohexanecarboxylic acid amide] | < 100 nM
6 | Cn1cc(-c2cccc(-c3ncc(-c4cnn([C@H]5CC[C@H](N6CCOCC6)CC5)c4)cn3)c2)cn1 [Example 208, Trans-4-[4-(4-{2-[3-(1-Methyl-1H-pyrazol-4-yl)-phenyl]-pyrimidin-5-yl}-pyrazol-1-yl)-cyclohexyl]-morpholine] | < 100 nM
7 | Cn1cc(-c2cccc(-c3ncc(-c4cnn([C@H]5CC[C@@H](N6CCOCC6)CC5)c4)cn3)c2)cn1 [Example 209, cis-4-[4-(4-{2-[3-(1-Methyl-1H-pyrazol-4-yl)-phenyl]-pyrimidin-5-yl}-pyrazol-1-yl)-cyclohexyl]-morpholine] | 1000 to 5000 nM
8 | Cn1cc(-c2cccc(-c3ncc(-c4cnn(CCNS(C)(=O)=O)c4)cn3)c2)cn1 [Example 210, N-[2-(4-{2-[3-(1-Methyl-1H-pyrazol-4-yl)-phenyl]-pyrimidin-5-yl}-pyrazol-1-yl)-ethyl]-methanesulfonamide] | 1000 to 5000 nM
9 | Cn1cc(-c2cccc(-c3ncc(-c4cnn(C5CCCC5O)c4)cn3)c2)cn1 (centres unmarked) [Example 211, 2-(4-{2-[3-(1-Methyl-1H-pyrazol-4-yl)-phenyl]-pyrimidin-5-yl}-pyrazol-1-yl)-cyclopentanol] | 100 to 1000 nM
10 | Cn1cc(-c2cccc(-c3ncc(-c4cnn(CC(O)CO)c4)cn3)c2)cn1 (centres unmarked) [Example 212, 3-(4-{2-[3-(1-Methyl-1H-pyrazol-4-yl)-phenyl]-pyrimidin-5-yl}-pyrazol-1-yl)-propane-1,2-diol] | 100 to 1000 nM
11 | Cn1cc(-c2cccc(-c3ncc(-c4cnn([C@H]5CC[C@H](C(=O)NC(C)(C)CO)CC5)c4)cn3)c2)cn1 [Example 213, trans-4-(4-{2-[3-(1-Methyl-1H-pyrazol-4-yl)-phenyl]-pyrimidin-5-yl}-pyrazol-1-yl)-cyclohexanecarboxylic acid (2-hydroxy-1,1-dimethyl-ethyl)-amide] | < 100 nM
12 | CC(C)OCC(CO)n1cc(-c2cnc(-c3cccc(-c4cnn(C)c4)c3)nc2)cn1 (centres unmarked) [Example 214, 3-Isopropoxy-2-(4-{2-[3-(1-methyl-1H-pyrazol-4-yl)-phenyl]-pyrimidin-5-yl}-pyrazol-1-yl)-propan-1-ol] | 1000 to 5000 nM
13 | Cn1cc(-c2cccc(-c3ncc(-c4cnn(CC(O)c5ccccn5)c4)cn3)c2)cn1 (centres unmarked) [Example 215, 2-(4-{2-[3-(1-Methyl-1H-pyrazol-4-yl)-phenyl]-pyrimidin-5-yl}-pyrazol-1-yl)-1-pyridin-2-yl-ethanol] | 100 to 1000 nM
14 | Cn1cc(-c2cccc(-c3ncc(-c4cnn(C5CCSC5)c4)cn3)c2)cn1 (centres unmarked) [Example 216, 2-[3-(1-Methyl-1H-pyrazol-4-yl)-phenyl]-5-[1-(tetrahydro-thiophen-3-yl)-1H-pyrazol-4-yl]-pyrimidine] | 100 to 1000 nM
15 | COCCO[C@H]1CC[C@H](n2cc(-c3cnc(-c4cccc(-c5cnn(C)c5)c4)nc3)cn2)CC1 [Example 217, trans-5-{1-[4-(2-Methoxy-ethoxy)-cyclohexyl]-1H-pyrazol-4-yl}-2-[3-(1-methyl-1H-pyrazol-4-yl)-phenyl]-pyrimidine] | < 100 nM
16 | COCCO[C@H]1CC[C@@H](n2cc(-c3cnc(-c4cccc(-c5cnn(C)c5)c4)nc3)cn2)CC1 [Example 218, cis-5-{1-[4-(2-Methoxy-ethoxy)-cyclohexyl]-1H-pyrazol-4-yl}-2-[3-(1-methyl-1H-pyrazol-4-yl)-phenyl]-pyrimidine] | 100 to 1000 nM
17 | Cn1cc(-c2cccc(-c3ncc(-c4cnn([C@H]5CC[C@H](OCC6CC6)CC5)c4)cn3)c2)cn1 [Example 220, trans-5-[1-(4-Cyclopropylmethoxy-cyclohexyl)-1H-pyrazol-4-yl]-2-[3-(1-methyl-1H-pyrazol-4-yl)-phenyl]-pyrimidine] | < 100 nM
18 | Cn1cc(-c2cccc(-c3ncc(-c4cnn(C5CCCOC5)c4)cn3)c2)cn1 (centres unmarked) [Example 221, 2-[3-(1-Methyl-1H-pyrazol-4-yl)-phenyl]-5-[1-(tetrahydro-pyran-3-yl)-1H-pyrazol-4-yl]-pyrimidine] | 100 to 1000 nM
19 | CN(C)C(=O)C1CC2(C1)CC(n1cc(-c3cnc(-c4cccc(-c5cnn(C)c5)c4)nc3)cn1)C2 (centres unmarked) [Example 222, 6-(4-{2-[3-(1-Methyl-1H-pyrazol-4-yl)-phenyl]-pyrimidin-5-yl}-pyrazol-1-yl)-spiro[3.3]heptane-2-carboxylic acid dimethylamide] | 100 to 1000 nM
20 | CC(=O)N1CCCC(n2cc(-c3cnc(-c4cccc(-c5cnn(C)c5)c4)nc3)cn2)CC1 (centres unmarked) [Example 223, 1-[4-(4-{2-[3-(1-Methyl-1H-pyrazol-4-yl)-phenyl]-pyrimidin-5-yl}-pyrazol-1-yl)-azepan-1-yl]-ethanone] | 100 to 1000 nM
21 | Cn1cc(-c2cccc(-c3ncc(-c4cnn([C@H]5CC[C@H](OCC(C)(C)O)CC5)c4)cn3)c2)cn1 [Example 224, trans-2-Methyl-1-[4-(4-{2-[3-(1-methyl-1H-pyrazol-4-yl)-phenyl]-pyrimidin-5-yl}-pyrazol-1-yl)-cyclohexyloxy]-propan-2-ol] | < 100 nM
22 | CC(=O)N1CC[C@H](n2cc(-c3cnc(-c4cccc(-c5cnn(C)c5)c4)nc3)cn2)[C@@H](O)C1 [Example 225, 1-[(3S,4S)-3-Hydroxy-4-(4-{2-[3-(1-methyl-1H-pyrazol-4-yl)-phenyl]-pyrimidin-5-yl}-pyrazol-1-yl)-piperidin-1-yl]-ethanone] | 100 to 1000 nM
23 | Cn1cc(-c2cccc(-c3ncc(-c4cnn([C@H]5CC[C@H](C(=O)NCC(C)(C)O)CC5)c4)cn3)c2)cn1 [Example 227, trans-4-(4-{2-[3-(1-Methyl-1H-pyrazol-4-yl)-phenyl]-pyrimidin-5-yl}-pyrazol-1-yl)-cyclohexanecarboxylic acid (2-hydroxy-2-methyl-propyl)-amide] | < 100 nM
24 | CC(O)CCNC(=O)[C@H]1CC[C@H](n2cc(-c3cnc(-c4cccc(-c5cnn(C)c5)c4)nc3)cn2)CC1 (stereo partly drawn) [Example 228, trans-4-(4-{2-[3-(1-Methyl-1H-pyrazol-4-yl)-phenyl]-pyrimidin-5-yl}-pyrazol-1-yl)-cyclohexanecarboxylic acid (3-hydroxy-butyl)-amide] | < 100 nM
25 | Cc1cc(-c2cccc(-c3ncc(-c4cnn([C@H]5CC[C@H](C(=O)N(C)C)CC5)c4)cn3)c2)ccn1 [Example 229, Trans-4-(4-{2-[3-(2-Methyl-pyridin-4-yl)-phenyl]-pyrimidin-5-yl}-pyrazol-1-yl)-cyclohexanecarboxylic acid dimethylamide] | 100 to 1000 nM
26 | Cn1cc(-c2cccc(-c3ncc(-c4cnn([C@H]5CC[C@H](C(=O)NCC#N)CC5)c4)cn3)c2)cn1 [Example 230, trans-4-(4-{2-[3-(1-Methyl-1H-pyrazol-4-yl)-phenyl]-pyrimidin-5-yl}-pyrazol-1-yl)-cyclohexanecarboxylic acid cyanomethyl-amide] | < 100 nM
27 | Cn1cc(-c2cccc(-c3ncc(-c4cnn([C@H]5C=C[C@@H](O)C5)c4)cn3)c2)cn1 [Example 231, (1S,4R)-4-[4-[2-[3-(1-methylpyrazol-4-yl)phenyl]pyrimidin-5-yl]pyrazol-1-yl]cyclopent-2-en-1-ol] | 100 to 1000 nM
28 | CN(C)C[C@H]1CC[C@H](n2cc(-c3cnc(-c4cccc(-c5cnn(C)c5)c4)nc3)cn2)CC1 [Example 232, Trans-dimethyl-[4-(4-{2-[3-(1-methyl-1H-pyrazol-4-yl)-phenyl]-pyrimidin-5-yl}-pyrazol-1-yl)-cyclohexylmethyl]-amine] | < 100 nM
29 | CN(C)C(=O)[C@H]1CC[C@H](n2cc(-c3cnc(-c4cccc(-c5ccnnc5)c4)nc3)cn2)CC1 [Example 233, Trans-4-{4-[2-(3-Pyridazin-4-yl-phenyl)-pyrimidin-5-yl]-pyrazol-1-yl}-cyclohexanecarboxylic acid dimethylamide] | 100 to 1000 nM
